Experiments:
[1] = system: RAW264.7; test: Cytotoxicity against mouse RAW264.7 cells after 24 hrs; assay type: cell-based; details: raw264.7, 24 h
[2] = system: RAW264.7; test: Inhibition of LPS-induced NO production in mouse RAW264.7 cells after 24 hrs by Griess reaction; assay type: functional, cell-based; details: RAW264.7, 24 h

SMILES | IC50 [2] | Activity [1]
C[C@@]12C[C@@]3(O)O[C@@H](O1)[C@]1(COC(=O)c4ccccc4)[C@H]3C[C@@]12O[C@@H]1O[C@H](CO)[C@@H](O)[C@H](O)[C@H]1O [PAEONIFLORIN] | > 100 µM | Non-toxic
CO[C@]12C[C@]3(C)O[C@H](O1)[C@]1(COC(=O)c4ccc(O)cc4)[C@H]2C[C@@]13O[C@@H]1O[C@H](COC(=O)c2cc(O)c(O)c(O)c2)[C@@H](O)[C@H](O)[C@H]1O | > 100 µM | Non-toxic
COc1ccc(C(=O)OC[C@H]2O[C@@H](O[C@]34C[C@@H]5[C@@]3(COC(=O)c3ccc(O)cc3)[C@H]3O[C@]5(O)C[C@]4(C)O3)[C@H](O)[C@@H](O)[C@@H]2O)cc1 [MOUDANPIOSIDE B] | > 100 µM | Non-toxic
COc1cc(C(=O)OC[C@H]2O[C@@H](O[C@]34C[C@@H]5[C@@]3(COC(=O)c3ccccc3)[C@H]3O[C@]5(O)C[C@]4(C)O3)[C@H](O)[C@@H](O)[C@@H]2O)ccc1O [MUDANPIOSIDE J] | > 100 µM | Non-toxic
CO[C@H]1O[C@@]2(C)CC(=O)[C@H]3C[C@]2(O[C@@H]2O[C@H](COC(=O)c4ccccc4)[C@@H](O)[C@H](O)[C@H]2O)[C@]13COC(=O)c1ccccc1 [PAEONIDANIN A] | > 100 µM | Non-toxic
CCCCO[C@H]1O[C@@]2(C)CC(=O)[C@@H]3C[C@@]2(O[C@@H]2O[C@H](CO)[C@@H](O)[C@H](O)[C@H]2O)[C@]13COC(=O)c1ccccc1 | > 100 µM | Non-toxic
C[C@@]12C[C@@]3(O)O[C@@H](O1)[C@]1(COC(=O)c4ccc(O)cc4)[C@H]3C[C@@]12O[C@@H]1O[C@H](CO)[C@@H](O)[C@H](O)[C@H]1O [OXYPAEONIFLORIN] |  | Non-toxic
CO[C@]12C[C@]3(C)O[C@H](O1)[C@]1(COC(=O)c4ccccc4)[C@@H]2C[C@]13O[C@@H]1O[C@H](CO)[C@@H](O)[C@H](O)[C@H]1O | > 100 µM | Non-toxic
C[C@@]12C[C@@]3(OS(=O)O)O[C@@H](O1)[C@]1(COC(=O)c4ccc(O)cc4)[C@H]3C[C@@]12O[C@@H]1O[C@H](CO)[C@@H](O)[C@H](O)[C@H]1O [OXYPAEONIFLORIN SULFONATE] | > 100 µM | Non-toxic
CO[C@@H]1O[C@@]2(C)CC(=O)[C@@H]3C[C@@]2(O[C@@H]2O[C@H](CO)[C@@H](O)[C@H](O)[C@H]2O)[C@]13COC(=O)c1ccc(O)cc1 |  | Non-toxic
CO[C@]12C[C@]3(C)O[C@H](O1)[C@]1(COC(=O)c4ccc(O)cc4)[C@H]2C[C@@]13O[C@@H]1O[C@H](CO)[C@@H](O)[C@H](O)[C@H]1O | > 100 µM | Non-toxic
C[C@@]12C[C@@]3(O)O[C@@H](O1)[C@]1(COC(=O)c4ccc(O)cc4)[C@H]3C[C@@]12O[C@@H]1O[C@H](COC(=O)c2cc(O)c(O)c(O)c2)[C@@H](O)[C@H](O)[C@H]1O [GALLOYLOXYPAEONIFLORIN] | > 100 µM | Non-toxic
C[C@@]12C[C@@]3(O)O[C@@H](O1)[C@]1(COC(=O)c4ccc(O)cc4)[C@H]3C[C@@]12O[C@@H]1O[C@H](COC(=O)c2ccc(O)cc2)[C@@H](O)[C@H](O)[C@H]1O [MUDANPIOSIDE H] | > 100 µM | Non-toxic
COc1cc(C(=O)OC[C@H]2O[C@@H](O[C@@]34C[C@H]5[C@@]3(CO)[C@H]3O[C@]5(O)C[C@]4(C)O3)[C@H](O)[C@@H](O)[C@@H]2O)ccc1O [MUDANPIOSIDE E] | > 100 µM | Non-toxic
CCCCO[C@]12C[C@]3(C)OC(O1)[C@]1(COC(=O)c4ccccc4)[C@@H]2C[C@@]31O[C@@H]1O[C@H](CO)[C@@H](O)[C@H](O)[C@H]1O | > 100 µM | Non-toxic
C[C@@]12C[C@@]3(O)O[C@@H](O1)[C@]1(COC(=O)c4ccccc4)[C@@H]3C[C@]12O[C@@H]1O[C@H](COC(=O)c2ccccc2)[C@@H](O)[C@H](O)[C@H]1O [BENZOYLPAEONIFLORIN] | > 100 µM | Non-toxic
CCCCO[C@]12C[C@]3(C)O[C@H](O1)[C@]1(COC(=O)c4ccc(O)cc4)[C@H]2C[C@@]13O[C@@H]1O[C@H](CO)[C@@H](O)[C@H](O)[C@H]1O | > 100 µM | Non-toxic
C[C@@]12C[C@@]3(O)O[C@@H](O1)[C@]1(COC(=O)c4ccc(O)cc4)[C@@H]3C[C@]12O[C@@H]1O[C@H](CO)[C@@H](O)[C@H](O)[C@H]1O [OXYPAEONIFLORIN] | > 100 µM | 

Now from value to compound, other results behind:

IC50 [2] | SMILES | Activity [1]
6.87 µM | C[C@@]12CC(=O)[C@H]3C[C@]1(O)O[C@H](O2)[C@@H]3COC(=O)c1ccccc1 [PAEONIFLORIGENONE] | Non-toxic
> 100 µM | CCCCO[C@H]1O[C@@]2(C)CC(=O)[C@@H]3C[C@@]2(O[C@@H]2O[C@H](CO)[C@@H](O)[C@H](O)[C@H]2O)[C@]13COC(=O)c1ccc(O)cc1 | Non-toxic
> 100 µM | COc1ccc(C(=O)OC[C@]23[C@H]4O[C@]5(O)C[C@](C)(O4)[C@@]2(O[C@@H]2O[C@H](CO)[C@@H](O)[C@H](O)[C@H]2O)C[C@H]35)cc1 [MUDANPIOSIDE D] | Non-toxic
41.9 µM | CO[C@]12C[C@]3(C)O[C@H](O1)[C@]1(COC(=O)c4ccccc4)[C@@H]2C[C@]13O[C@@H]1O[C@H](COC(=O)c2ccccc2)[C@@H](O)[C@H](O)[C@H]1O | Non-toxic
36.1 µM | C[C@@]12C[C@@]3(O)O[C@@H](O1)[C@]1(COC(=O)c4ccccc4)[C@@H]3C[C@]12O[C@@H]1O[C@H](COC(=O)c2cc(O)c(O)c(O)c2)[C@@H](O)[C@H](O)[C@H]1O [GALLOYLPAEONIFLORIN] | Non-toxic
12.4 µM | CC1=CC(=O)[C@@H]2C[C@@]1(O[C@@H]1O[C@H](CO)[C@@H](O)[C@H](O)[C@H]1O)[C@@]2(C)CO [MOUDANPIOSIDE F] | Non-toxic
31.2 µM | C[C@@]12C[C@@]3(O)O[C@@H](O1)[C@]1(COC(=O)c4ccccc4)[C@H]3C[C@@]12O[C@@H]1O[C@H](COC(=O)c2ccccc2)[C@@H](O[C@@H]2O[C@H](CO)[C@@H](O)[C@H](O)[C@H]2O)[C@H](O)[C@H]1O [PAEONIFLORIN B] | Non-toxic
74.2 µM | C[C@@]12C[C@@]3(O)O[C@@H](O1)[C@]1(CO)[C@H]3C[C@@]12O[C@@H]1O[C@H](CO)[C@@H](O)[C@H](O)[C@H]1O | Non-toxic
90.9 µM | CO[C@H]1O[C@@]2(C)CC(=O)[C@@H]3C[C@@]2(O[C@@H]2O[C@H](CO)[C@@H](O)[C@H](O)[C@H]2O)[C@]13COC(=O)c1ccc(O)cc1 [OXYPAEONIDANIN] | Non-toxic
